Reference: patent publication US20220062240A1, “METHODS OF TREATING CANCER USING A CLK INHIBITOR” (BioSplice Therapeutics, Inc., priority 2018, published 2022)
Where two headings read alike, the source gives them in different places.

How the values were obtained:
[1] = system: pancreatic cancer (8 cell lines); experiment: CellTiter-Glo Viability Assay, pancreatic cancer; format: cell-based; settings: Homo sapiens, inhibition of cancer cell proliferation
[2] = system: liver cancer (3 cell lines); experiment: CellTiter-Glo Viability Assay, liver cancer; format: cell-based; settings: Homo sapiens, inhibition of cancer cell proliferation
[3] = system: colorectal cancer (6 cell lines); experiment: CellTiter-Glo Viability Assay, colorectal cancer; format: cell-based; settings: Homo sapiens, inhibition of cancer cell proliferation
[4] = system: prostate cancer (5 cell lines); experiment: CellTiter-Glo Viability Assay, prostate cancer; format: cell-based; settings: Homo sapiens
[5] = system: lung cancer (4 cell lines); experiment: CellTiter-Glo Viability Assay, lung cancer; format: cell-based; settings: Homo sapiens, inhibition of cancer cell proliferation
[6] = system: haematopoietic & lymphoid tumors (13 cell lines); experiment: CellTiter-Glo Viability Assay, haematopoietic & lymphoid tumors; format: cell-based; settings: Homo sapiens, inhibition of cancer cell proliferation
[7] = system: ovarian cancer (4 cell lines); experiment: CellTiter-Glo Viability Assay, ovarian cancer; format: cell-based; settings: Homo sapiens, inhibition of cancer cell proliferation
CLK3 = CLK3 (Homo sapiens, UniProt P49761); experiment: CLK3 kinase activity assay (Z-lyte, Ser/Thr 18 peptide)
Chain of CLK3 (P49761 whole entry): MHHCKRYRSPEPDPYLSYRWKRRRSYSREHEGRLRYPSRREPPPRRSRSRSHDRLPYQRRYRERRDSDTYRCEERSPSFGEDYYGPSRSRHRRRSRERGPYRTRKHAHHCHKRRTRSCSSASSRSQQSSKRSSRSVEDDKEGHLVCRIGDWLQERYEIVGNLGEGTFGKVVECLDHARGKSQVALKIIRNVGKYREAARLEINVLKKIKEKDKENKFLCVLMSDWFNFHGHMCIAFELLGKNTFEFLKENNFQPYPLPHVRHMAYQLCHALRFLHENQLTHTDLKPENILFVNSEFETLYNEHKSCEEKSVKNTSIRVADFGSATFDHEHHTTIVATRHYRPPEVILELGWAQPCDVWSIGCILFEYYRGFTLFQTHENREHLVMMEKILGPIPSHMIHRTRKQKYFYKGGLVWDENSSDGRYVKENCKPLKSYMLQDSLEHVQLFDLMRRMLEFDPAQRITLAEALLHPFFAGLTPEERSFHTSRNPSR

all 50 cell lines = experiment: CellTiter-Glo Viability Assay, average across all cell lines; format: cell-based; settings: Homo sapiens; across all 50 cell lines; read-out: average EC50 for inhibition of cancer cell proliferation
How it was run: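 Human cancer cell lines from breast, colorectal, haematopoietic/lymphoid, liver, lung, ovarian, pancreatic and prostate tumours were seeded at 300-3,000 cells/well and exposed to compound in duplicate for four days at 37° C, 5% CO2. Viable cells were measured by ATP luminescence; EC50 values came from dose-response curves.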

ZR-75-1 = experiment: CellTiter-Glo Viability Assay, breast cancer; format: cell-based; settings: Homo sapiens, 96 h; ZR-75-1, breast cancer, four days; read-out: EC50
CAMA1 = experiment: CellTiter-Glo Viability Assay, breast cancer; format: cell-based; settings: Homo sapiens, CAMA-1, 96 h; CAMA1, breast cancer, four days; read-out: EC50
MDA-MB-231-Luc = experiment: CellTiter-Glo Viability Assay, breast cancer; format: cell-based; settings: Homo sapiens, 96 h; MDA-MB-231-Luc, breast cancer, four days; read-out: EC50
T47D = experiment: CellTiter-Glo Viability Assay, breast cancer; format: cell-based; settings: Homo sapiens, 96 h, breast cancer, four days, read-out: EC50
DU4475 = experiment: CellTiter-Glo Viability Assay, breast cancer; format: cell-based; settings: Homo sapiens, DU-4475, 96 h; DU4475, breast cancer, four days; read-out: EC50
HCC1599 = experiment: CellTiter-Glo Viability Assay, breast cancer; format: cell-based; settings: Homo sapiens, 96 h; HCC1599, breast cancer, four days; read-out: EC50
BT-549 = experiment: CellTiter-Glo Viability Assay, breast cancer; format: cell-based; settings: Homo sapiens, 96 h; BT-549, breast cancer, four days; read-out: EC50
MCF7 = experiment: CellTiter-Glo Viability Assay, breast cancer; format: cell-based; settings: Homo sapiens, 96 h; MCF7, breast cancer, four days; read-out: EC50
CLK2 = biological target: T1, CLK2 (Homo sapiens, UniProt P49760); experiment: CLK2 kinase activity assay (Z-lyte, Ser/Thr 6 peptide); format: biochemical; settings: recombinant CLK2 kinase, ATP 60 μM; read-out: EC50
T1 construct: purchased Thermo Fisher (Life Technologies), Z'-LYTE Kinase Assay Kits
T1 sequence (P49760 whole entry): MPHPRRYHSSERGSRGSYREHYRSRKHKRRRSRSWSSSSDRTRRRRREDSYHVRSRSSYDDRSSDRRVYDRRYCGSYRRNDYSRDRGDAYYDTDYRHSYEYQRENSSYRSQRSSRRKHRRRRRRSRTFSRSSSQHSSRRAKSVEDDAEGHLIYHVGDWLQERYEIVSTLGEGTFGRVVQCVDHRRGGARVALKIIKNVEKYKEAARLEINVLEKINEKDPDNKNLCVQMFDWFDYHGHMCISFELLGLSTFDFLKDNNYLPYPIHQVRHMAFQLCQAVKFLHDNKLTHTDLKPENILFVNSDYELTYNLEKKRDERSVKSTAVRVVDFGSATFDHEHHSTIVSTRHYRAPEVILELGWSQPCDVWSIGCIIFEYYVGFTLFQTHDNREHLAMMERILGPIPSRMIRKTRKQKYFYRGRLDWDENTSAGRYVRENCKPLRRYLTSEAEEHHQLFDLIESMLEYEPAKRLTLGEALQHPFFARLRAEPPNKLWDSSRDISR
Method: All reactions were performed in duplicate.

[8] = BXPC-3, BxPC3 cell line, read-out: Pancreatic cancer, EC50 BxPC3
[9] = CAPAN-1, Capan1 cell line, read-out: Pancreatic cancer, EC50 Capan1
[10] = Capan-2, Capan2 cell line, read-out: Pancreatic cancer, EC50 Capan2
[11] = MIA PaCa-2 cell line, read-out: Pancreatic cancer, EC50 MIA PaCa-2
[12] = PANC 05.04 cell line, read-out: Pancreatic cancer, EC50 PANC 05.04
[13] = PANC-1 cell line, read-out: Pancreatic cancer, EC50 PANC-1
[14] = UPAFII cell line, read-out: Pancreatic cancer, EC50 UPAFII
[15] = SNU-398, SNU398 cell line, read-out: Liver cancer, EC50 SNU398
[16] = HEPG2 cell line, read-out: Liver cancer, EC50 HEPG2
[17] = PLC/PRF/5 cell line, read-out: Liver cancer, EC50 PLC/PRF/5
[18] = HCT-116, HCT116 cell line, read-out: Colorectal cancer, EC50 (μM) HCT116
[19] = HT-29, HT29 cell line, read-out: Colorectal cancer, EC50 (μM) HT29
[20] = SW-620, SW620 cell line, read-out: Colorectal cancer, EC50 (μM) SW620
[21] = DLD-1 cell line, read-out: Colorectal cancer, EC50 (μM) DLD-1
[22] = SW48 cell line, read-out: Colorectal cancer, EC50 (μM) SW48
[23] = SW480 cell line, read-out: Colorectal cancer, EC50 (μM) SW480
[24] = DU-145, read-out: Prostate cancer EC50 Du-145
[25] = PC-3, PC3 cell line, inhibition of cancer cell proliferation, read-out: Prostate cancer EC50 PC3
[26] = 22Rv1 cell line, inhibition of cancer cell proliferation, read-out: Prostate cancer EC50 22Rv1
[27] = LNCap clone FGC cell line, inhibition of cancer cell proliferation, read-out: Prostate cancer EC50 LNCap clone FGC
[28] = VCaP (Sigma) cell line, inhibition of cancer cell proliferation, read-out: Prostate cancer EC50 VCaP (Sigma)
[29] = A-427, A427 cell line, read-out: Lung cancer, EC50 (μM) A427
[30] = HCC78, HCC-78 cell line, read-out: Lung cancer, EC50 (μM) HCC-78
[31] = NCI-H460 cell line, read-out: Lung cancer, EC50 (μM) NCI-H460
[32] = NCI-H522 cell line, read-out: Lung cancer, EC50 (μM) NCI-H522
[33] = DND41, DND-41 cell line, read-out: Haematopoietic & Lymphoid tumors, EC50 (μM) DND-41
[34] = MV4-11, MV-4-11 cell line, read-out: Haematopoietic & Lymphoid tumors, EC50 (μM) MV-4-11
[35] = Rec1, REC-1 cell line, read-out: Haematopoietic & Lymphoid tumors, EC50 (μM) REC-1
[36] = SU-DHL-4, SUDHL4 cell line, read-out: Haematopoietic & Lymphoid tumors, EC50 (μM) SUDHL4
[37] = HL-60 cell line, read-out: Haematopoietic & Lymphoid tumors, EC50 (μM) HL-60
[38] = JM1 cell line, read-out: Haematopoietic & Lymphoid tumors, EC50 (μM) JM1
[39] = JURKAT, Clone E6-1 cell line, read-out: Haematopoietic & Lymphoid tumors, EC50 (μM) JURKAT, Clone E6-1
[40] = JeKo-1 cell line, read-out: Haematopoietic & Lymphoid tumors, EC50 (μM) JeKo-1
[41] = KASUMI-1 cell line, read-out: Haematopoietic & Lymphoid tumors, EC50 (μM) KASUMI-1
[42] = Loucy cell line, read-out: Haematopoietic & Lymphoid tumors, EC50 (μM) Loucy
[43] = MOLT-4 cell line, read-out: Haematopoietic & Lymphoid tumors, EC50 (μM) MOLT-4
[44] = TF-1 cell line, read-out: Haematopoietic & Lymphoid tumors, EC50 (μM) TF-1
[45] = TOLEDO cell line, read-out: Haematopoietic & Lymphoid tumors, EC50 (μM) TOLEDO

For `COc1ccc(NC(=O)c2n[nH]c3ccc(-c4cncc(CN5CCCCC5)c4)cc23)cn1` [Compound 59], the EC50 [1, 8] was 1050 nM, the EC50 [1, 9] was 228 nM and the EC50 [1, 10] was 55 nM. The EC50 [1, 11] was 175 nM, the EC50 [1, 12] was 226 nM and the EC50 [1, 13] was 666 nM. It also gave an EC50 [1, 14] of 282 nM, an EC50 [2, 15] of 161 nM and an EC50 [2, 16] of 428 nM. The EC50 [2, 17] was 1030 nM, the EC50 [3, 18] was 0.193 µM and the EC50 [3, 19] was 0.666 µM. The EC50 [3, 20] was 0.187 µM, the EC50 [3, 21] was 0.376 µM and the EC50 [3, 22] was 0.132 µM. The EC50 [3, 23] was 0.353 µM, the EC50 [4, 24] was 563 nM and the EC50 [4, 25] was 394 nM. For the same compound, the EC50 [4, 26] was 253 nM, the EC50 [4, 27] was 553 nM and the EC50 [4, 28] was 612 nM. The EC50 [5, 29] was 0.443 µM, the EC50 [5, 30] was 0.997 µM and the EC50 [5, 31] was 0.32 µM. The EC50 [5, 32] was 0.19 µM, the EC50 [6, 33] was 0.529 µM and the EC50 [6, 34] was 0.077 µM. For the same compound, the EC50 [6, 35] was 0.133 µM, the EC50 [6, 36] was 0.525 µM and the EC50 [6, 37] was 1.24 µM. The EC50 [6, 38] was 0.115 µM, the EC50 [6, 39] was 1.02 µM and the EC50 [6, 40] was 0.141 µM. For the same compound, the EC50 [6, 41] was 0.157 µM, the EC50 [6, 42] was 0.304 µM and the EC50 [6, 43] was 0.689 µM. For the same compound, the EC50 [6, 44] was 0.41 µM, the EC50 [6, 45] was 0.121 µM and the EC50 ([7]; PA-1, PA1 cell line, read-out: Ovarian cancer, EC50 (μM) PA1) was 0.27 µM. It also gave an EC50 ([7]; TOV112D, TOV-112D cell line, read-out: Ovarian cancer, EC50 (μM) TOV-112D) of 0.264 µM, an EC50 ([7]; OV-90 cell line, read-out: Ovarian cancer, EC50 (μM) OV-90) of 0.936 µM and an EC50 ([7]; OVCAR-3 cell line, read-out: Ovarian cancer, EC50 (μM) OVCAR-3) of 0.1 µM. For the same compound, the EC50 (CLK3) was 61.1 nM, the EC50 (all 50 cell lines) was 434 nM and the EC50 (ZR-75-1) was 653 nM. The EC50 (CAMA1) was 345 nM, the EC50 (MDA-MB-231-Luc) was 636 nM and the EC50 (T47D) was 730 nM. For the same compound, the EC50 (DU4475) was 178 nM, the EC50 (HCC1599) was 286 nM and the EC50 (BT-549) was 473 nM. It also gave an EC50 (MCF7) of 853 nM.

With `Cn1ncc(-c2ccc3cnc(NC(=O)c4cccc(CN5CCCC5)c4)cc3c2)c1CN1CCCCC1` [Compound 78] the EC50 [1, 8] was 1110 nM, the EC50 [1, 9] was 627 nM and the EC50 [1, 10] was 1040 nM. For the same compound, the EC50 [1, 11] was 272 nM, the EC50 [1, 12] was 818 nM and the EC50 [1, 13] was 736 nM. For the same compound, the EC50 [1, 14] was 381 nM, the EC50 [2, 15] was 132 nM and the EC50 [2, 16] was 845 nM. For the same compound, the EC50 [2, 17] was 1290 nM, the EC50 (CLK2) was 1.6 nM and the EC50 [3, 18] was 0.38 µM. For the same compound, the EC50 [3, 19] was 0.674 µM, the EC50 [3, 20] was 0.198 µM and the EC50 [3, 21] was 0.499 µM. The EC50 [3, 22] was 0.182 µM, the EC50 [3, 23] was 0.404 µM and the EC50 [4, 24] was 713 nM. For the same compound, the EC50 [4, 25] was 674 nM, the EC50 [4, 26] was 525 nM and the EC50 [4, 27] was 966 nM. For the same compound, the EC50 [4, 28] was 546 nM, the EC50 [5, 29] was 0.672 µM and the EC50 [5, 30] was 1.1 µM. For the same compound, the EC50 [5, 31] was 0.856 µM, the EC50 [5, 32] was 0.395 µM and the EC50 [6, 33] was 0.513 µM. For the same compound, the EC50 [6, 34] was 0.099 µM, the EC50 [6, 35] was 0.164 µM and the EC50 [6, 36] was 0.62 µM. The EC50 [6, 37] was 1.29 µM, the EC50 [6, 38] was 0.177 µM and the EC50 [6, 39] was 0.976 µM. It also gave an EC50 [6, 40] of 0.228 µM, an EC50 [6, 41] of 0.363 µM and an EC50 [6, 42] of 0.522 µM. The EC50 [6, 43] was 0.562 µM, the EC50 [6, 44] was 0.897 µM and the EC50 [6, 45] was 0.156 µM. The EC50 (CLK3) was 14.6 nM, the EC50 (all 50 cell lines) was 610 nM and the EC50 (ZR-75-1) was 711 nM. It also gave an EC50 (CAMA1) of 561 nM, an EC50 (MDA-MB-231-Luc) of 677 nM and an EC50 (T47D) of 888 nM. It also gave an EC50 (DU4475) of 381 nM, an EC50 (HCC1599) of 512 nM and an EC50 (BT-549) of 655 nM. It also gave an EC50 (MCF7) of 1420 nM.
